System: ARG1, NOS2, CD206 and MHC II mRNA expression in BMDMs
Experiment: qRT-PCR of ARG1, NOS2, CD206, MHC II in BMDMs
Format: cell-based, mouse
Settings: BMDMs stimulated with IL-4/IL-13, different concentrations, 12 h
Experimental: We also extended the test to primary murine macrophages derived from bone marrow (BMDMs), which were cultured in vitro with recombinant mouse M-CSF for 6 days. The BMDMs were then stimulated with IL-4/IL-13, leading to their transformation into M2-like pro-tumoral macrophages. This transformation was characterized by an increase in both ARG1 and CD206 expression and a decrease in both NOS2 and MHC II expression. […] Subsequently, we assessed the capacity of compound 12 to inhibit the M2-like polarization of macrophages using CSF-1-differentiated mouse BMDMs. These cells were treated with IL-4 and IL-13 for 48 h, and the expression levels of CD206, an M2-type marker, and CD86, an M1-type marker, were analyzed via flow cytometry. […]
Figure 2 Compound 12 inhibits the M2-like polarized phenotype of macrophages. […] The expression levels of the markers CD206 and CD86 on induced macrophages were determined by flow cytometry, and the mean fluorescence intensity (MFI) was analyzed with FlowJo (C), or the cells were lysed and immunoblotted to detect the indicated proteins (D). […] Data are represented as means ± SD. ^### p < 0.001 vs. non-stimulated control group, * p < 0.05, ** p < 0.01, *** p < 0.001 vs. stimulated control group. p-values were determined using one-way ANOVA.

COC(=O)C1=CC[C@@]23CC[C@@H]([C@@](C)(/C=C/C=C(\C)C(=O)NNCCO)OC2=O)[C@@]3(OC(C)=O)CC1 [compound 12, Methyl(3R,4S,4aS,9aR)-4a-acetoxy-3-((1E,3E)-5-(2-(2-hydroxyethyl)hydrazineyl)-4-methyl-5-oxopenta-1,3-dien-1-yl)-3-methyl-1-oxo-3,4,4a,5,6,9-hexahydro-1H-4,9a-ethanocyclohepta[c]pyran-7-carboxylate]
IL-4/IL-13-induced increase in ARG1 and CD206 and decrease in NOS2 and MHC II expression: significantly reversed these trends
